In ChEMBL document CHEMBL3638529, “Spiro-oxindole MDM2 antagonists” (2015):

Target: E3 ubiquitin-protein ligase Mdm2 (Homo sapiens, UniProt Q00987)
Assay: Fluorescence-Polarization Binding Assay: The binding affinity of the MDM2 inhibitors was determined using an optimized, sensitive and quantitative fluorescence polarization-based (FP-based) binding assay using a recombinant human His-tagged MDM2 protein (residues 1-118) and a fluorescently tagged p53-based peptide.The design of the fluorescence probe was based upon a previously reported …
Description: The assay was performed in the buffer: 100 mM potassium phosphate, pH 7.5; 100 ug/mL bovine gamma globulin; 0.02% sodium azide, 0.01% Triton X-100).

E3 ubiquitin-protein ligase Mdm2, sequence (Q00987 whole entry, the tested form may be a part): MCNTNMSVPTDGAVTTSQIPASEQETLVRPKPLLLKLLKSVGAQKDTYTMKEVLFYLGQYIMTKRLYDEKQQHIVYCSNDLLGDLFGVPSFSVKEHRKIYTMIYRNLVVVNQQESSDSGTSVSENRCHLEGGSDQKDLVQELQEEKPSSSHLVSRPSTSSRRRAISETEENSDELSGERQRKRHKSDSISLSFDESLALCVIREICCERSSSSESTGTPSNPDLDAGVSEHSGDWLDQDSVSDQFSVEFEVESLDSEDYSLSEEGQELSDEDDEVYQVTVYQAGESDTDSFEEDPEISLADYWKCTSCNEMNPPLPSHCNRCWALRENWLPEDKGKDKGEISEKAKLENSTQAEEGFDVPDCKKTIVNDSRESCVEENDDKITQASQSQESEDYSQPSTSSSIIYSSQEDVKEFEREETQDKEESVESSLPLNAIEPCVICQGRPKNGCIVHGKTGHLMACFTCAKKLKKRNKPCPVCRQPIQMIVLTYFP

IC50, < 1000 nM:
CC(C)(C)C[C@H]1N[C@@H](C(=O)NCC[C@H]2CC[C@H](N)C2)[C@H](c2cccc(Cl)c2F)[C@@]12C(=O)Nc1cc(Cl)c(F)cc12, CC(C)(C)C[C@H]1N[C@@H](C(=O)NCC[C@H]2CC[C@H](NS(C)(=O)=O)C2)[C@H](c2cccc(Cl)c2F)[C@@]12C(=O)Nc1cc(Cl)c(F)cc12, CC(C)(C)C[C@H]1N[C@@H](C(=O)NCCNS(C)(=O)=O)[C@H](c2cccc(Cl)c2F)[C@@]12C(=O)Nc1cc(Cl)c(F)cc12, CC(C)(C)C[C@H]1N[C@@H](C(=O)NCCCNS(C)(=O)=O)[C@H](c2cccc(Cl)c2F)[C@@]12C(=O)Nc1cc(Cl)c(F)cc12
